# According to ChEMBL document CHEMBL5370604, “Identification of Micrococcin P2-Derivatives as Antibiotic Candidates against Two Gram-Positive Pathogens” (J Med Chem, 2023):
# Activity calls are given as the source filed them. No cut-off for these calls is given here.
# Columns and labels:
# Staphylococcus aureus [1] = experiment: Antibacterial activity against Staphylococcus aureus ATCC 4330 assessed as inhibition of bacterial growth measured after 16 to 24 hrs by CLSI based broth dilution method; format: functional; settings: time 16-24 hrs
# Clostridioides difficile [2] = experiment: Antibacterial activity against Clostridioides difficile ATCC 43255 assessed as inhibition of bacterial growth measured after 24 hrs by CLSI based broth dilution method; format: functional
# [3] = Aqueous kinetic solubility of the compound at pH 7.4 incubated for 2 hrs by UPLC-MS analysis; format: physicochemical; settings: read-out: Kinetic_solubility
# Clostridioides difficile [4] = experiment: Antibacterial activity against Clostridioides difficile ribotype 027 infected in colitis induced C57BL/6J mouse assessed as survival rate at 30 mg/kg, po qd pretreated with clindamycin followed by […] infection and compound addition measured on day 5; format: functional; settings: ribotype 027, 120 h, time 5 day
# Clostridioides difficile [5] = experiment: Antibacterial activity against Clostridioides difficile ribotype 027 infected in colitis induced C57BL/6J mouse assessed as increase in survival rate without recurrence at 30 mg/kg, po qd pretreated with clindamycin followed by […] infection and compound addition measured on day 5; format: functional
# Clostridioides difficile [6] = experiment: Antibacterial activity against Clostridioides difficile ribotype 027 infected in colitis induced C57BL/6J mouse assessed as increase in survival rate without recurrence at 30 mg/kg, po qd pretreated with clindamycin followed by […] infection and compound addition measured on day 15 to day 19; format: functional, organism-based; settings: time 15-19 day
# [7] = (§1) Toxicity in colitis-induced C57BL/6J mouse infected with Clostridioides difficile ribotype 027 assessed as increase in Enterococcus proportion in gut at 30 mg/kg, po qd pretreated with clindamycin followed by infected with […] and measured on day 6 post treatment by RNA sequencing analysis (reference value: 0%); format: organism-based; settings: in vivo, 144 h, time 6 day
# [8] = as §1, with “Klebsiella” for “Enterococcus”; format: organism-based; settings: in vivo, 144 h, time 6 day
# [9] = as §1, with “Escherichia” for “Enterococcus”; format: organism-based; settings: in vivo, 144 h, time 6 day
# [10] = as §1, with “in Klebsiella” for “in Enterococcus”, “day 20” for “day 6”; format: organism-based; settings: in vivo, 480 h, time 20 day
# [11] = as §1, with “day 20” for “day 6”; format: organism-based; settings: in vivo, 480 h, time 20 day
# [12] = as §1, with “in Escherichia” for “in Enterococcus”, “day 20” for “day 6”; format: organism-based; settings: in vivo, 480 h, time 20 day
# Clostridioides difficile [13] = experiment: Antibacterial activity against Clostridioides difficile RT001/ST3/A+B+ assessed as inhibition of bacterial growth measured after 24 hrs by CLSI based broth dilution method; format: functional
# Clostridioides difficile [14] = experiment: Antibacterial activity against Clostridioides difficile RT002/ST8/A+B+ assessed as inhibition of bacterial growth measured after 24 hrs by CLSI based broth dilution method; format: functional
# Clostridioides difficile [15] = experiment: Antibacterial activity against Clostridioides difficile RT012/ST54/A+B+ assessed as inhibition of bacterial growth measured after 24 hrs by CLSI based broth dilution method; format: functional
# Clostridioides difficile [16] = experiment: Antibacterial activity against Clostridioides difficile RT014/ST14/A+B+ assessed as inhibition of bacterial growth measured after 24 hrs by CLSI based broth dilution method; format: functional
# Clostridioides difficile [17] = experiment: Antibacterial activity against Clostridioides difficile RT015/ST35/A+B+ assessed as inhibition of bacterial growth measured after 24 hrs by CLSI based broth dilution method; format: functional
# Clostridioides difficile [18] = experiment: Antibacterial activity against Clostridioides difficile RT018/ST17/A+B+ assessed as inhibition of bacterial growth measured after 24 hrs by CLSI based broth dilution method; format: functional
# Clostridioides difficile [19] = experiment: Antibacterial activity against Clostridioides difficile RT293/ST129/A+B+ assessed as inhibition of bacterial growth measured after 24 hrs by CLSI based broth dilution method; format: functional
# Clostridioides difficile [20] = experiment: Antibacterial activity against Clostridioides difficile RT027/ST1/A+B+CDT+ assessed as inhibition of bacterial growth measured after 24 hrs by CLSI based broth dilution method; format: functional
# Clostridioides difficile [21] = experiment: Antibacterial activity against Clostridioides difficile NT/ST67/A+B+CDT+ assessed as inhibition of bacterial growth measured after 24 hrs by CLSI based broth dilution method; format: functional
# Clostridioides difficile [22] = experiment: Antibacterial activity against Clostridioides difficile RT130/ST5/A+B+CDT+ assessed as inhibition of bacterial growth measured after 24 hrs by CLSI based broth dilution method; format: functional
# Clostridioides difficile [23] = experiment: Antibacterial activity against Clostridioides difficile NT/ST221/A+B+CDT+ assessed as inhibition of bacterial growth measured after 24 hrs by CLSI based broth dilution method; format: functional
# Clostridioides difficile [24] = experiment: Antibacterial activity against Clostridioides difficile RT017/ST37/A-B+ assessed as inhibition of bacterial growth measured after 24 hrs by CLSI based broth dilution method; format: functional
# Clostridioides difficile [25] = experiment: Antibacterial activity against Clostridioides difficile RT078/ST11/A+B+CDT+ assessed as inhibition of bacterial growth measured after 24 hrs by CLSI based broth dilution method; format: functional
# Staphylococcus aureus [26] = experiment: Antibacterial activity against methicillin-resistant Staphylococcus aureus assessed as inhibition of bacterial growth measured after 16 to 24 hrs by CLSI based broth dilution method; format: functional; settings: time 16-24 hrs
# Enterococcus faecalis [27] = experiment: Antibacterial activity against Enterococcus faecalis ATCC 29212 assessed as inhibition of bacterial growth measured after 24 hrs by CLSI based broth dilution method; format: functional
# Enterococcus faecalis [28] = experiment: Antibacterial activity against Clinical isolate Enterococcus faecalis assessed as inhibition of bacterial growth measured after 24 hrs by CLSI based broth dilution method; format: functional
# Enterococcus faecium = experiment: Antibacterial activity against Enterococcus faecium ATCC 19434 assessed as inhibition of bacterial growth measured after 24 hrs by CLSI based broth dilution method; format: functional
# [29] = Toxicity in colitis-induced C57BL/6J mouse infected with Clostridioides difficile ribotype 027 assessed as effect on gut micro-biome at 30 mg/kg, po qd pretreated with clindamycin followed by infected with […] and measured on day 6 post treatment by RNA sequencing analysis; format: organism-based; settings: in vivo, 144 h, time 6 day
# [30] = Toxicity in colitis-induced C57BL/6J mouse infected with Clostridioides difficile ribotype 027 assessed as effect on Firmicutes proportion in gut at 30 mg/kg, po qd pretreated with clindamycin followed by infected with […] and measured on day 6 post treatment by RNA sequencing analysis; format: organism-based; settings: in vivo, 144 h, time 6 day
# [31] = Toxicity in colitis-induced C57BL/6J mouse infected with Clostridioides difficile ribotype 027 assessed as effect on Acinetobacter proportion in gut at 30 mg/kg, po qd pretreated with clindamycin followed by infected with […] and measured on day 6 post treatment by RNA sequencing analysis; format: organism-based; settings: in vivo, 144 h, time 6 day
# [32] = Genotoxicity in Salmonella typhimurium TA98 incubated for 90 min by Ames test; format: toxicity; settings: salmonella enterica subsp. enterica serovar typhimurium, 1.5 h
# [33] = Genotoxicity in Salmonella typhimurium TA100 incubated for 90 min by Ames test; format: toxicity; settings: salmonella enterica subsp. enterica serovar typhimurium, 1.5 h
# [34] = Genotoxicity in Salmonella typhimurium TA98 incubated for 90 min in presence of S9 fraction by Ames test; format: toxicity, subcellular; settings: salmonella enterica subsp. enterica serovar typhimurium, s9, 1.5 h
# [35] = Genotoxicity in Salmonella typhimurium TA100 incubated for 90 min in presence of S9 fraction by Ames test; format: toxicity, subcellular; settings: salmonella enterica subsp. enterica serovar typhimurium, s9, 1.5 h
# [36] = biological target: Voltage-gated inwardly rectifying potassium channel KCNH2 (Homo sapiens, UniProt Q12809); experiment: Inhibition of hERG expressed in HEK293 cells at 10 uM incubated for 5 mins by whole cell patch clamp assay; format: toxicity, cell-based; settings: hek293, 5 min
# Sequence of Voltage-gated inwardly rectifying potassium channel KCNH2 (Q12809 whole entry): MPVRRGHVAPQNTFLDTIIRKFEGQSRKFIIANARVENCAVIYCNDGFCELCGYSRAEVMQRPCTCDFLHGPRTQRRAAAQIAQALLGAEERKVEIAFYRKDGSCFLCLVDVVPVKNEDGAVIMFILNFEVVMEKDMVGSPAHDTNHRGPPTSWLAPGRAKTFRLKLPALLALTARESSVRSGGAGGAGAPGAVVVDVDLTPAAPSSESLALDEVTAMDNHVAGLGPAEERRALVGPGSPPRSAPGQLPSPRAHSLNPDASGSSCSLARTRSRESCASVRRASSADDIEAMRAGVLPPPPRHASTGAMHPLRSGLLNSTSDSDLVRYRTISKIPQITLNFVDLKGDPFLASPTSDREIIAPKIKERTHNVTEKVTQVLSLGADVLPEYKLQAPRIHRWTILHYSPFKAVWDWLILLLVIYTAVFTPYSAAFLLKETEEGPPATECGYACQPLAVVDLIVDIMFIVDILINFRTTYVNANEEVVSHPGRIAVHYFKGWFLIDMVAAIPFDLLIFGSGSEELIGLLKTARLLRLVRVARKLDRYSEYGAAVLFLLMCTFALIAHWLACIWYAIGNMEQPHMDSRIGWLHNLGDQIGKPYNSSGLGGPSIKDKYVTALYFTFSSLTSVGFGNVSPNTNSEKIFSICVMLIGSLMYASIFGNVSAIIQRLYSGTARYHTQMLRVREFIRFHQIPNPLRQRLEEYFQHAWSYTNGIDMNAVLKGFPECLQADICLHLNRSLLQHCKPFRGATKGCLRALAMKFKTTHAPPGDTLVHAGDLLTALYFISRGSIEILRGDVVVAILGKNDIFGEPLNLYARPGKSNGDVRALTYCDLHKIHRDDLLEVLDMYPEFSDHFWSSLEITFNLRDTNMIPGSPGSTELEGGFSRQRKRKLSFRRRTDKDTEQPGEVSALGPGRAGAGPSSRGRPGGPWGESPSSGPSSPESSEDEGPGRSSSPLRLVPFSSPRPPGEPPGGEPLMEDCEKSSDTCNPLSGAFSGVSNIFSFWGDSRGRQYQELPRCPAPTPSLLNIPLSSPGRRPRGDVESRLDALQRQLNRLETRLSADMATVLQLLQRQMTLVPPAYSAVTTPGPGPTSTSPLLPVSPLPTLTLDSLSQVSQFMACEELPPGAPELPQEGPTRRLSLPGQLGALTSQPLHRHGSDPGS
Structure (SMILES),MIC (Staphylococcus aureus [1]) [µg/mL],MIC (Clostridioides difficile [2]) [µg/mL],survival at 30 mg/kg (Clostridioides difficile [4]) [%],Activity [7] [%],Activity [8] [%],Activity [9] [%],Activity [10] [%],Activity [11] [%],Activity [12] [%],MIC (Clostridioides difficile [13]) [µg/mL],MIC (Clostridioides difficile [14]) [µg/mL],MIC (Clostridioides difficile [15]) [µg/mL],MIC (Clostridioides difficile [16]) [µg/mL],MIC (Clostridioides difficile [17]) [µg/mL],MIC (Clostridioides difficile [18]) [µg/mL],MIC (Clostridioides difficile [19]) [µg/mL],MIC (Clostridioides difficile [20]) [µg/mL],MIC (Clostridioides difficile [21]) [µg/mL],MIC (Clostridioides difficile [22]) [µg/mL],MIC (Clostridioides difficile [23]) [µg/mL],also measured
C/C=C1\NC(=O)[C@H]([C@@H](C)O)NC(=O)c2csc(n2)-c2ccc(-c3nc(-c4nc(C(=O)NC5(C(=O)NCCCN6CCN(C(C)C)CC6)CC5)cs4)cs3)nc2-c2csc(n2)[C@H]([C@@H](C)O)NC(=O)c2csc(n2)[C@H](C(C)C)NC(=O)c2csc1n2,1,1,,,,,,,,,,,,,,,,,,,solubility kinetic at 2 h [3]: 120 µg/mL
CN[C@H](CC(C)C)C(=O)N[C@H]1C(=O)N[C@@H](CC(N)=O)C(=O)N[C@H]2C(=O)N[C@H]3C(=O)N[C@H](C(=O)N[C@H](C(=O)O)c4cc(O)cc(O)c4-c4cc3ccc4O)[C@H](O)c3ccc(c(Cl)c3)Oc3cc2cc(c3O[C@@H]2O[C@H](CO)[C@@H](O)[C@H](O)[C@H]2O[C@H]2C[C@](C)(N)[C@H](O)[C@H](C)O2)Oc2ccc(cc2Cl)[C@H]1O [VANCOMYCIN],,1,40,0,8.78,24.55,1.39,21.53,5.22,1,1,1,1,0.5,1,1,1,2,1,2,Activity (Clostridioides difficile [5]; time 5 day): 30%; Activity (Clostridioides difficile [6]): inactive; MIC (Clostridioides difficile [24]): 0.5 µg/mL; MIC (Clostridioides difficile [25]): 1 µg/mL
C/C(=C\C(=O)OCCCCCCCCC(=O)O)C[C@@H]1OC[C@H](C[C@@H]2O[C@H]2[C@@H](C)[C@H](C)O)[C@@H](O)[C@H]1O [MUPIROCIN],,,,,,,,,,,,,,,,,,,,,MIC50 (Staphylococcus aureus [26]): > 8 µg/mL
C/C=C(\NC(=O)c1csc(-c2csc(-c3ccc4c(n3)-c3csc(n3)[C@H]([C@@H](C)O)NC(=O)c3csc(n3)[C@H](C(C)C)NC(=O)c3csc(n3)/C(=C/C)NC(=O)[C@H]([C@@H](C)O)NC(=O)c3csc-4n3)n2)n1)C(=O)NCCn1c([N+](=O)[O-])cnc1C,0.25,0.125,80,0.52,0.94,2.88,0.15,1.62,0.93,0.125,0.125,0.125,0.125,0.125,0.125,0.125,0.125,0.125,0.125,0.125,MIC (Enterococcus faecalis [27]): 0.25 µg/mL; MIC (Enterococcus faecalis [28]): 0.25 µg/mL; MIC (Enterococcus faecium): 0.25 µg/mL; Activity (Clostridioides difficile [5]; time 5.0 day): Active; Activity [29]: Non-Toxic; Activity [30]: Non-Toxic; Activity [31]: Non-Toxic; Activity [32]: Non-Toxic; Activity [33]: Non-Toxic; Activity [34]: Non-Toxic; Activity [35]: Non-Toxic; inhibition (INH) [36]: Active; MIC (Clostridioides difficile [24]): 0.125 µg/mL; MIC (Clostridioides difficile [25]): 0.125 µg/mL
